Measurements from PubChem BioAssay (NCI).
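Five concentrations, 48 hours, 96-well plates. TGI marks complete inhibition of growth.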

What was measured:
Experiment in all cases: DTP human tumour cell line panel, 48 h
[1] = system: HCC-2998 colon
[2] = system: RXF 393 renal
[3] = system: A549 NSCLC
[4] = system: OVCAR-8 ovarian
[5] = system: SK-OV-3 ovarian
[6] = system: EKVX NSCLC
[7] = system: U251 CNS
[8] = system: OVCAR-5 ovarian
[9] = system: TK-10 renal
[10] = system: NCI-H522 lung
[11] = system: SNB-75 CNS
[12] = system: DMS 273 small cell lung
[13] = system: DMS 114 small cell lung
[14] = system: LOX IMVI melanoma
[15] = system: HOP-62 NSCLC
[16] = system: SK-MEL-5 melanoma
[17] = system: M14 melanoma
[18] = system: KM20L2 colon
[19] = system: CCRF-CEM leukemia
[20] = system: HOP-18 NSCLC
[21] = system: UACC-62 melanoma
[22] = system: HOP-92 NSCLC
[23] = system: DLD-1 colon
[24] = system: HL-60(TB) leukemia
[25] = system: K-562 leukemia
[26] = system: SK-MEL-28 melanoma
[27] = system: SK-MEL-2 melanoma
[28] = system: NCI-H23 lung
[29] = system: NCI-H226 lung
[30] = system: SN12C renal
[31] = system: IGROV1 ovarian
[32] = system: MALME-3M melanoma
[33] = system: SNB-78 CNS
[34] = system: SF-268 CNS
[35] = system: RXF-631 renal
[36] = system: SNB-19 CNS
[37] = system: NCI-H460 lung
[38] = system: SF-295 CNS
[39] = system: RPMI-8226 leukemia
[40] = system: KM12 colon
[41] = system: XF 498 CNS
[42] = system: M19-MEL melanoma
[43] = system: LXFL 529 NSCLC
[44] = system: OVCAR-3 ovarian
[45] = system: SW-620 colon
[46] = system: ACHN renal
[47] = system: SF-539 CNS
[48] = system: UO-31 renal
[49] = system: HCT-15 colon
[50] = system: SR leukemia
[51] = system: HCT-116 colon
[52] = system: HT29 colon
[53] = system: COLO 205 colon
[54] = system: MOLT-4 leukemia
[55] = system: UACC-257 melanoma
[56] = system: 786-0 renal
[57] = system: OVCAR-4 ovarian
[58] = system: CAKI-1 renal
[59] = system: A498 renal

## COc1cc2c3c(c1OC)-c1ccccc1C(C(O)c1ccccc1)C3N(C)CC2 (stereo not given)
[1]
  TGI: 33.7 µM
[2]
  TGI: 29.1 µM
[3]
  TGI: > 100 µM
[4]
  TGI: > 100 µM
[5]
  TGI: > 100 µM
[6]
  TGI: > 100 µM
[7]
  TGI: > 100 µM
[8]
  TGI: > 100 µM
[9]
  TGI: > 100 µM
[10]
  TGI: 35.9 µM
[11]
  TGI: > 100 µM
[12]
  TGI: 64.6 µM
[13]
  TGI: 43.9 µM
[14]
  TGI: > 100 µM
[15]
  TGI: 71.6 µM
[16]
  TGI: 28 µM
[17]
  TGI: 35.6 µM
[18]
  TGI: 48.8 µM
[19]
  TGI: > 100 µM
[20]
  TGI: > 100 µM
[21]
  TGI: > 100 µM
[22]
  TGI: > 100 µM
[23]
  TGI: 66.1 µM
[24]
  TGI: 43.6 µM
[25]
  TGI: 76.4 µM
[26]
  TGI: 41.6 µM
[27]
  TGI: 88.2 µM
[28]
  TGI: > 100 µM
[29]
  TGI: 72.8 µM
[30]
  TGI: 99.2 µM
[31]
  TGI: 80.6 µM
[32]
  TGI: 35 µM
[33]
  TGI: > 100 µM
[34]
  TGI: > 100 µM
[35]
  TGI: 65.8 µM
[36]
  TGI: > 100 µM
[37]
  TGI: 90 µM
[38]
  TGI: > 100 µM
[39]
  TGI: 82.7 µM
[40]
  TGI: 72.4 µM
[41]
  TGI: 52.3 µM
[42]
  TGI: > 100 µM
[43]
  TGI: > 100 µM
[44]
  TGI: > 100 µM
[45]
  TGI: > 100 µM
[46]
  TGI: > 100 µM
[47]
  TGI: 42.3 µM
[48]
  TGI: 68.3 µM
[49]
  TGI: 76.9 µM
[50]
  TGI: 47 µM
[51]
  TGI: 39.2 µM
[52]
  TGI: 72 µM
[53]
  TGI: 29.6 µM
[54]
  TGI: 89 µM
[55]
  TGI: 40.6 µM
[56]
  TGI: > 100 µM

## Cc1cccc(-c2cc(=O)c3cc(C)c(C)c(C(=O)O)c3o2)c1
[1]
  TGI: > 100 µM
[3]
  TGI: > 100 µM
[4]
  TGI: > 100 µM
[5]
  TGI: > 100 µM
[6]
  TGI: > 100 µM
[7]
  TGI: > 100 µM
[8]
  TGI: > 100 µM
[9]
  TGI: > 100 µM
[10]
  TGI: > 100 µM
[11]
  TGI: > 100 µM
[12]
  TGI: > 100 µM
[13]
  TGI: > 100 µM
[14]
  TGI: > 100 µM
[15]
  TGI: > 100 µM
[16]
  TGI: > 100 µM
[17]
  TGI: > 100 µM
[18]
  TGI: > 100 µM
[19]
  TGI: > 100 µM
[20]
  TGI: > 100 µM
[21]
  TGI: > 100 µM
[22]
  TGI: > 100 µM
[57]
  TGI: > 100 µM
[23]
  TGI: > 100 µM
[24]
  TGI: > 100 µM
[25]
  TGI: > 100 µM
[26]
  TGI: > 100 µM
[27]
  TGI: > 100 µM
[28]
  TGI: > 100 µM
[29]
  TGI: > 100 µM
[30]
  TGI: > 100 µM
[31]
  TGI: > 100 µM
[32]
  TGI: > 100 µM
[33]
  TGI: > 100 µM
[35]
  TGI: > 100 µM
[36]
  TGI: > 100 µM
[37]
  TGI: > 100 µM
[38]
  TGI: > 100 µM
[39]
  TGI: > 100 µM
[40]
  TGI: > 100 µM
[58]
  TGI: > 100 µM
[41]
  TGI: > 100 µM
[42]
  TGI: > 100 µM
[43]
  TGI: > 100 µM
[44]
  TGI: > 100 µM
[45]
  TGI: > 100 µM
[46]
  TGI: > 100 µM
[47]
  TGI: > 100 µM
[48]
  TGI: > 100 µM
[49]
  TGI: > 100 µM
[50]
  TGI: > 100 µM
[51]
  TGI: > 100 µM
[52]
  TGI: > 100 µM
[53]
  TGI: > 100 µM
[54]
  TGI: > 100 µM
[55]
  TGI: > 100 µM
[56]
  TGI: > 100 µM

## Cc1nc2c(nc1C)C(=O)C1=C(C2=O)C2C=CC1CC2
[1]
  TGI: > 62.1 µM
[2]
  TGI: 18.5 µM
[3]
  TGI: 41.5 µM
[4]
  TGI: 10.8 µM
[5]
  TGI: > 96.3 µM
[6]
  TGI: 18.9 µM
[7]
  TGI: 10.1 µM
[8]
  TGI: 36.9 µM
[9]
  TGI: > 55.9 µM
[10]
  TGI: 5.91 µM
[11]
  TGI: 61.6 µM
[12]
  TGI: 29.8 µM
[13]
  TGI: 3.71 µM
[14]
  TGI: 6.14 µM
[15]
  TGI: 53.9 µM
[16]
  TGI: 4.82 µM
[17]
  TGI: 27.3 µM
[18]
  TGI: 52.8 µM
[19]
  TGI: 5.9 µM
[20]
  TGI: 30.2 µM
[21]
  TGI: 12.3 µM
[22]
  TGI: 4.48 µM
[57]
  TGI: 3.5 µM
[23]
  TGI: 21.6 µM
[24]
  TGI: 4.26 µM
[59]
  TGI: 98.7 µM
[25]
  TGI: 6.15 µM
[26]
  TGI: 35.6 µM
[27]
  TGI: 29 µM
[28]
  TGI: 19.6 µM
[29]
  TGI: 30.8 µM
[30]
  TGI: 32.4 µM
[31]
  TGI: 9.93 µM
[32]
  TGI: 24.4 µM
[33]
  TGI: 10.6 µM
[34]
  TGI: 12.3 µM
[35]
  TGI: 13.9 µM
[36]
  TGI: > 61.2 µM
[37]
  TGI: 39.8 µM
[38]
  TGI: 25 µM
[39]
  TGI: 7.35 µM
[40]
  TGI: 33.3 µM
[58]
  TGI: 37.6 µM
[41]
  TGI: 14.5 µM
[42]
  TGI: 3.46 µM
[43]
  TGI: 3.19 µM
[44]
  TGI: 17.3 µM
[45]
  TGI: 8.09 µM
[46]
  TGI: 24.9 µM
[47]
  TGI: 26.9 µM
[48]
  TGI: 26.1 µM
[49]
  TGI: 38.1 µM
[51]
  TGI: 3.12 µM
[52]
  TGI: 41.7 µM
[53]
  TGI: 29.8 µM
[54]
  TGI: 5.38 µM
[55]
  TGI: 14.5 µM
[56]
  TGI: 24.8 µM
